Experimental data taken from article PMC10058827, “A New Way to 2,3,4-Trisubstituted Benzo[h]quinolines: Synthesis, Consecutive Reactions and Cellular Activities” (Molecules, 2023).
Like-named read-outs stand apart in the source and are kept apart here.

Assays:
Type in all cases: cell-based
[1] = test system: conditional immortalized human fibroblast cell line FS4-LTM; test: Antiproliferative WST-1 assay; settings: WST-1, 24 h
Protocol: (§1) In addition to probing effects on bacterial pathogens, the compounds’ ability to interfere with the proliferation and/or viability of four mammalian cell lines was assessed by quantifying their mitochondrial dehydrogenase activity in a colorimetric assay with the tetrazolium dye WST-1. […] The effects of the compounds on cell viability were probed with a WST-1 test using the procedure of Ishiyama et al. as modified by Sasse et al.. […] Briefly, the subconfluent cells were washed with Earle’s Balanced Salt Solution (Gibco) without Ca and Mg ions, trypsinized, and re-suspended in Dulbecco’s modified eagle’s medium that contained 5% fetal bovine serum (FBS; L929, KB-3-1, FS4-LTM) or Roswell Park Memorial Institute medium that contained 5% FBS, 0.5% Minimum Essential Medium Non-Essential Amino Acids, Gibco (MEM NEAA), 0.5% GlutaMAX (Gibco), and insulin at 5 μg/mL (MCF-7). […] The blank and solvent controls were incubated under identical conditions. After an incubation period of 5 days (for L929, KB-3-1, and MCF-7) or 24 h (for FS4-LTM), 3 μL of WST-1 (ready-to-use solution by Roche) was added. The incubation time of the plates at 37 °C varied between the cell lines from 20 min for KB-3-1, 30 min for L929, 1 h for FS4-LTM, to 2 h for MCF-7, before measuring absorbance at 450 nm (reference 600 nm) with an Infinite 200 PRO plate reader (Tecan, Männedorf, Switzerland). As the positive control compounds, Auranofin and Staurosporin were applied. The absorbance of the solvent control was set to 100%. The EC50 values were determined with Sigma Plot.

[2] = test system: human cervical carcinoma cell line KB-3-1; test: Antiproliferative WST-1 assay; settings: WST-1, 5 days
Protocol: as §1

[3] = test system: mouse fibroblast cell line L929; test: Antiproliferative WST-1 assay; settings: WST-1, 5 days
Protocol: as §1

[4] = test system: human breast cancer cell line MCF-7; test: Antiproliferative WST-1 assay; settings: WST-1, 5 days
Protocol: (§2) In addition to probing effects on bacterial pathogens, the compounds’ ability to interfere with the proliferation and/or viability of four mammalian cell lines was assessed by quantifying their mitochondrial dehydrogenase activity in a colorimetric assay with the tetrazolium dye WST-1.
The effects of the compounds on cell viability were probed with a WST-1 test using the procedure of Ishiyama et al. as modified by Sasse et al.. […] Briefly, the subconfluent cells were washed with Earle’s Balanced Salt Solution (Gibco) without Ca and Mg ions, trypsinized, and re-suspended in Dulbecco’s modified eagle’s medium that contained 5% fetal bovine serum (FBS; L929, KB-3-1, FS4-LTM) or Roswell Park Memorial Institute medium that contained 5% FBS, 0.5% Minimum Essential Medium Non-Essential Amino Acids, Gibco (MEM NEAA), 0.5% GlutaMAX (Gibco), and insulin at 5 μg/mL (MCF-7). […] The blank and solvent controls were incubated under identical conditions. After an incubation period of 5 days (for L929, KB-3-1, and MCF-7) or 24 h (for FS4-LTM), 3 μL of WST-1 (ready-to-use solution by Roche) was added. The incubation time of the plates at 37 °C varied between the cell lines from 20 min for KB-3-1, 30 min for L929, 1 h for FS4-LTM, to 2 h for MCF-7, before measuring absorbance at 450 nm (reference 600 nm) with an Infinite 200 PRO plate reader (Tecan, Männedorf, Switzerland). As the positive control compounds, Auranofin and Staurosporin were applied. The absorbance of the solvent control was set to 100%. The EC50 values were determined with Sigma Plot.

[5] = test system: Staphylococcus aureus MRSA (DSM 11822); test: Antibacterial growth inhibition screen, residual growth in % (OD600); settings: for activity at 5 µM: Staphylococcus aureus, strain DSM 11822, compound concentration 5 µM, 18 h at 37 °C; for activity against MRSA (in words): growth inhibition assay
Protocol: (§3) Overnight cultures of the bacteria were grown aerobically at 37 °C in Müller–Hinton broth with added 1% glucose and a pH of 7.2 for Gram-negative strains, or with a Trypticase soy yeast extract medium (TSY—30 g/L Trypticase soy broth, 3 g/L yeast extract, pH 7.2) for Gram-positive strains. […] A total of 25 μL of test culture was added to 25 μL of a serial dilution of the test compounds in the appropriate medium for the different strains in accordance with standardized procedures in 384-well plates. For screening purposes, the residual absorbance in % was tested at the compound concentrations of 5 and 50 µM. For the selected compounds, the concentration-dependent growth inhibition curves were recorded from the stock solutions in DMSO at the final concentrations of 100, 50, 25, 12.5, 6,25, 3.125, 1.56, 0.78, 0.39, and 0.2 µM. As the positive control compounds, Linezolid (both MRSA strains) Ciprofloxacin (E. faecium, E. coli), and Amikacin (P. aeruginosa) were applied. The highest DMSO concentration in the assay was 1%, which had no apparent effect on the growth of the bacteria. After an incubation time of 18 h at 37 °C under moist conditions, the optical density at 600 nm was measured with a Fusion Universal Microplate Analyzer (Perkin–Elmer, Waltham, MA, USA). […] The following bacterial strains were used: Gram-negative: Escherichia coli (DSM 1116) and Pseudomonas aeruginosa PA7 (DSM 24068), and Gram-positive: Staphylococcus aureus MRSA (clinical isolate, RKI 11-02670) and Staphylococcus aureus MRSA (DSM 11822). The MIC values were determined by curve fitting with Sigma Plot.

[6] = test system: Staphylococcus aureus MRSA (clinical isolate, RKI 11-02670); test: Antibacterial MIC determination, concentration-dependent growth inhibition
Protocol: as §3

[7] = test system: four mammalian cell lines (L929, KB-3-1, MCF-7, FS4-LTM); test: Antiproliferative WST-1 assay, range over all four cell lines; settings: 5 days (L929, KB-3-1, MCF-7) or 24 h (FS4-LTM)
Protocol: as §2
The effects of the compounds on cell viability were probed with a WST-1 test using the procedure of Ishiyama et al. as modified by Sasse et al.. […] Briefly, the subconfluent cells were washed with Earle’s Balanced Salt Solution (Gibco) without Ca and Mg ions, trypsinized, and re-suspended in Dulbecco’s modified eagle’s medium that contained 5% fetal bovine serum (FBS; L929, KB-3-1, FS4-LTM) or Roswell Park Memorial Institute medium that contained 5% FBS, 0.5% Minimum Essential Medium Non-Essential Amino Acids, Gibco (MEM NEAA), 0.5% GlutaMAX (Gibco), and insulin at 5 μg/mL (MCF-7). […] After an incubation period of 5 days (for L929, KB-3-1, and MCF-7) or 24 h (for FS4-LTM), 3 μL of WST-1 (ready-to-use solution by Roche) was added. The incubation time of the plates at 37 °C varied between the cell lines from 20 min for KB-3-1, 30 min for L929, 1 h for FS4-LTM, to 2 h for MCF-7, before measuring absorbance at 450 nm (reference 600 nm) with an Infinite 200 PRO plate reader (Tecan, Männedorf, Switzerland). […] The absorbance of the solvent control was set to 100%. The EC50 values were determined with Sigma Plot.

[8] = strain RKI 11-02670, 18 h at 37 °C, read-out: MRSA MIC
[9] = strain RKI 11-02670, converted from µM, read-out: MRSA MIC (µg/mL values in brackets)

Structure (SMILES)	activity at 5 µM [5] [%]	activity against MRSA (in words) [5]	EC50 ([1]; Homo sapiens, FS4-LTM) [µM]	EC50 ([2]; Homo sapiens, KB 3-1, 120 h) [µM]	EC50 ([3]; Mus musculus, L929, 120 h) [µM]	EC50 ([4]; Homo sapiens, MCF7, 120 h) [µM]	further results
CC(=O)OC[C@H]1O[C@@H]([S-])[C@H](OC(C)=O)[C@@H](OC(C)=O)[C@@H]1OC(C)=O.CCP(CC)CC.[Au+] [Auranofin, reference compound]	–	–	–	–	–	–	EC50 [1]: 1.3 µM; EC50 [2]: 0.6 µM; EC50 [3]: 0.4 µM; EC50 [4]: 3.5 µM
CCOC(=O)CSc1nc2c(ccc3cc4ccccc4cc32)c(C(Cl)Cl)c1[N+](=O)[O-] [Compound 6, Ethyl 2-((4-(dichloromethyl)-3-nitronaphtho[2,3-h]quinolin-2-yl)thio)acetate]	112	inactive	–	–	–	–	–
CCOC(=O)C[S+]([O-])c1nc2c(ccc3ccccc32)c(C(Cl)Cl)c1[N+](=O)[O-] (centres unmarked) [Compound 8, Ethyl 2-((4-(dichloromethyl)-3-nitrobenzo[h]quinolin-2-yl)sulfinyl)acetate]	1	–	3.4	3.8	2.5	3.5	MIC [6, 8]: 17.5 µM; MIC [6, 9]: 7.7 µg/mL; EC50 [7]: 2.5 to 3.8 µM
O=[N+]([O-])c1c(Sc2ccc(F)cc2)nc2c(ccc3ccccc32)c1C(Cl)Cl [Compound 10d, 4-(Dichloromethyl)-2-((4-fluorophenyl)thio)-3-nitrobenzo[h]quinoline]	98.4	complete loss of activity	> 50	< 0.1	> 50	> 50	–
O=[N+]([O-])c1c(N2CCCCC2)nc2c(ccc3ccccc32)c1C(Cl)Cl [Compound 11a, 4-(Dichloromethyl)-3-nitro-2-(piperidin-1-yl)benzo[h]quinoline]	95.6	inactive	> 50	> 50	> 50	19	–
O=[N+]([O-])c1c(N2CCOCC2)nc2c(ccc3ccccc32)c1C(Cl)Cl [Compound 11b, 4-(4-(Dichloromethyl)-3-nitrobenzo[h]quinolin-2-yl)morpholine]	123	inactive	> 50	10	27	50	–
O=[N+]([O-])c1c([S+]([O-])c2ccc(F)cc2)nc2c(ccc3ccccc32)c1C(Cl)Cl (centres unmarked) [Compound 12, 4-(Dichloromethyl)-2-((4-fluorophenyl)sulfinyl)-3-nitrobenzo[h]quinoline]	2	–	4.4	3.1	3.3	> 50	MIC [6, 8]: 1.2 µM; MIC [6, 9]: 0.5 µg/mL
O=C(O)CSc1nc2c(ccc3ccccc32)c(C(Cl)Cl)c1[N+](=O)[O-] [Compound 13, 2-((4-(Dichloromethyl)-3-nitrobenzo[h]quinolin-2-yl)thio)acetic acid]	1	high activity	15.7	6.9	45	17	MIC [6, 8]: 8.4 µM; MIC [6, 9]: 3.3 µg/mL; EC50 [7]: 6.9 to 45 µM
O=[N+]([O-])C(C(Cl)=C(Cl)Cl)=C(n1cccn1)n1cccn1 [Compound 16c, 1,1’-(3,4,4-Trichloro-2-nitrobuta-1,3-diene-1,1-diyl)bis(1H-pyrazole)]	126	no activity	–	–	–	–	–
O=[N+]([O-])/C(C(Cl)=C(Cl)Cl)=C(\Nc1cccc2ccccc12)n1nnc2ccccc21 [Compound 17a, (E)-N-(1-(1H-Benzo[d][1,2,3]triazol-1-yl)-3,4,4-trichloro-2-nitrobuta-1,3-dien-1-yl)naphthalen-1-amine]	120	–	–	–	–	–	–
O=[N+]([O-])/C(C(Cl)=C(Cl)Cl)=C(\Nc1cccc2ccccc12)n1cncn1 [Compound 17b, (E)-N-(3,4,4-Trichloro-2-nitro-1-(1H-1,2,4-triazol-1-yl)buta-1,3-dien-1-yl)naphthalen-1-amine]	112	–	–	–	–	–	–
O=[N+]([O-])/C(C(Cl)=C(Cl)Cl)=C(\Nc1cccc2ccccc12)n1cccn1 [Compound 17c, (E)-N-(3,4,4-Trichloro-2-nitro-1-(1H-pyrazol-1-yl)buta-1,3-dien-1-yl)naphthalen-1-amine]	101	–	–	–	–	–	–
O=[N+]([O-])c1c(-n2nnc3ccccc32)nc2c(ccc3ccccc32)c1C(Cl)Cl [Compound 18a, 2-(1H-Benzo[d][1,2,3]triazol-1-yl)-4-(dichloromethyl)-3-nitrobenzo[h]quinoline]	95.1	–	–	–	–	–	–
O=[N+]([O-])c1c(-n2cncn2)nc2c(ccc3ccccc32)c1C(Cl)Cl [Compound 18b, 4-(Dichloromethyl)-3-nitro-2-(1H-1,2,4-triazol-1-yl)benzo[h]quinoline]	107	–	–	–	–	–	–
O=[N+]([O-])c1c(-n2cccn2)nc2c(ccc3ccccc32)c1C(Cl)Cl [Compound 18c, 4-(Dichloromethyl)-3-nitro-2-(1H-pyrazol-1-yl)benzo[h]quinoline]	110	–	–	–	–	–	–
CC(=O)NC[C@H]1CN(c2ccc(N3CCOCC3)c(F)c2)C(=O)O1 [Linezolid, reference compound]	1	–	–	–	–	–	MIC [6, 8]: 0.4 µM
CN[C@@H]1C[C@H]2O[C@@](C)([C@@H]1OC)n1c3ccccc3c3c4c(c5c6ccccc6n2c5c31)C(=O)NC4 [Staurosporine, reference compound]	–	–	–	–	–	< 0.14	–
